In patent publication US12043632B2, “6-heteroaryloxy benzimidazoles and azabenzimidazoles as JAK2 inhibitors” (Ajax Therapeutics, Inc., priority 2020, dated 2024):

Target: T1, JAK2 (JH1domain-catalytic, Y1007F,Y1008F) kinase (Homo sapiens, UniProt O60674, Y1007F/Y1008F)
T1 construct: JAK2 (JH1domain-catalytic, Y1007F,Y1008F) kinase was expressed as N-terminal fusion; made in house; host or cells: transiently transfected HEK293 cells
Experiment: JAK2 JH1 Domain Binding Assay
Details: qPCR readout

T1 sequence (O60674 849-1124 Y1007F/Y1008F limits assumed): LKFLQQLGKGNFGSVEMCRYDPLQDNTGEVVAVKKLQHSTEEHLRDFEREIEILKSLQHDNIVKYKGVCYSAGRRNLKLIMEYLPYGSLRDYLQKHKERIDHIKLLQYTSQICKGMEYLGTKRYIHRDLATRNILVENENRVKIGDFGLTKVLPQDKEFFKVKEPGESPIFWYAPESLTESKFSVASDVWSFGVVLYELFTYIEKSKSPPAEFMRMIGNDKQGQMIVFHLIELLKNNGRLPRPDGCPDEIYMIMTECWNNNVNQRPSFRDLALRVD

Kd [nM]	SMILES
10 to 50	Cn1cc(C(F)(F)F)cc(Nc2nc3ncc(Oc4cnc5[nH]cc(F)c5c4)c(Cl)c3n2C)c1=O [Example I-288, 3-((7-chloro-6-((3-fluoro-1H-pyrrolo[2,3-b]pyridin-5-yl)oxy)-1-methyl-1H-imidazo[4,5-b]pyridin-2-yl)amino)-1-methyl-5-(trifluoromethyl)pyridin-2(1H)-one]
10 to 50	Cn1cc(C(F)(F)F)cc(Nc2nc3ncc(Oc4cnc5[nH]cc(F)c5c4)c(C#N)c3n2C)c1=O [Example I-289, 6-((3-fluoro-1H-pyrrolo[2,3-b]pyridin-5-yl)oxy)-1-methyl-2-((1-methyl-2-oxo-5-(trifluoromethyl)-1,2-dihydropyridin-3-yl)amino)-1H-imidazo[4,5-b]pyridine-7-carbonitrile]
10 to 50	Cc1cc2cc(Oc3cnc4nc(Nc5cc(C(F)(F)F)cn(C)c5=O)n(C)c4c3C#N)cnc2[nH]1 [Example I-290, 1-methyl-6-((2-methyl-1H-pyrrolo[2,3-b]pyridin-5-yl)oxy)-2-((1-methyl-2-oxo-5-(trifluoromethyl)-1,2-dihydropyridin-3-yl)amino)-1H-imidazo[4,5-b]pyridine-7-carbonitrile]
< 10	COc1ccc2c(Oc3cnc4nc(Nc5cc(C(F)(F)F)cn(C)c5=O)n(C)c4c3C#N)cnn2c1 [Example I-291, 6-((6-methoxypyrazolo[1,5-a]pyridin-3-yl)oxy)-1-methyl-2-((1-methyl-2-oxo-5-(trifluoromethyl)-1,2-dihydropyridin-3-yl)amino)-1H-imidazo[4,5-b]pyridine-7-carbonitrile]
< 10	Cn1cc(C(F)(F)F)cc(Nc2nc3ncc(Oc4cnn5cc(C#N)ccc45)c(Cl)c3n2C)c1=O [Example I-292, 3-((7-chloro-1-methyl-2-((1-methyl-2-oxo-5-(trifluoromethyl)-1,2-dihydropyridin-3-yl)amino)-1H-imidazo[4,5-b]pyridin-6-yl)oxy)pyrazolo[1,5-a]pyridine-6-carbonitrile]
10 to 50	Cc1cc2cc(Oc3cnc4nc(Nc5cc(C(F)(F)F)cn(C)c5=O)n(C)c4c3Cl)cnc2[nH]1 [Example I-293, 3-((7-chloro-1-methyl-6-((2-methyl-1H-pyrrolo[2,3-b]pyridin-5-yl)oxy)-1H-imidazo[4,5-b]pyridin-2-yl)amino)-1-methyl-5-(trifluoromethyl)pyridin-2(1H)-one]
10 to 50	Cn1cc(C(F)(F)F)cc(Nc2nc3ncc(Oc4cnc5[nH]c(C6CC6)cc5c4)c(Cl)c3n2C)c1=O [Example I-294, 3-((7-chloro-6-((2-cyclopropyl-1H-pyrrolo[2,3-b]pyridin-5-yl)oxy)-1-methyl-1H-imidazo[4,5-b]pyridin-2-yl)amino)-1-methyl-5-(trifluoromethyl)pyridin-2(1H)-one]
10 to 50	Cn1c(Nc2cc(C(F)(F)F)cn([C@H]3C[C@H](O)C3)c2=O)nc2ncc(Oc3cnn4cccc(F)c34)c(Cl)c21 [Example I-295, trans-3-((7-chloro-6-((4-fluoropyrazolo[1,5-a]pyridin-3-yl)oxy)-1-methyl-1H-imidazo[4,5-b]pyridin-2-yl)amino)-1-(3-hydroxycyclobutyl)-5-(trifluoromethyl)pyridin-2(1H)-one]
10 to 50	Cn1cc(C(F)(F)F)cc(Nc2nc3ncc(Oc4cnc5[nH]c(C6CC6)cc5c4)c(C#N)c3n2C)c1=O [Example I-296, 6-((2-cyclopropyl-1H-pyrrolo[2,3-b]pyridin-5-yl)oxy)-1-methyl-2-((1-methyl-2-oxo-5-(trifluoromethyl)-1,2-dihydropyridin-3-yl)amino)-1H-imidazo[4,5-b]pyridine-7-carbonitrile]
< 10	Cn1c(Nc2cc(C(F)(F)F)cn([C@H]3C[C@H](O)C3)c2=O)nc2ncc(Oc3cnn4cccc(F)c34)c(C#N)c21 [Example I-297, trans-6-((4-fluoropyrazolo[1,5-a]pyridin-3-yl)oxy)-2-((1-(3-hydroxycyclobutyl)-2-oxo-5-(trifluoromethyl)-1,2-dihydropyridin-3-yl)amino)-1-methyl-1H-imidazo[4,5-b]pyridine-7-carbonitrile]
